Measured values as given in patent US8669271B2 (Boehringer Ingelheim International GmbH, priority 2010, dated 2014).

Target: T1, human GPR119 (Homo sapiens, UniProt Q8TDV5)
T1 construct: expression vector for human GPR119 cDNA (Acc. No. NP_848566); expressed in transfected cells
T1 sequence (Q8TDV5 1-335): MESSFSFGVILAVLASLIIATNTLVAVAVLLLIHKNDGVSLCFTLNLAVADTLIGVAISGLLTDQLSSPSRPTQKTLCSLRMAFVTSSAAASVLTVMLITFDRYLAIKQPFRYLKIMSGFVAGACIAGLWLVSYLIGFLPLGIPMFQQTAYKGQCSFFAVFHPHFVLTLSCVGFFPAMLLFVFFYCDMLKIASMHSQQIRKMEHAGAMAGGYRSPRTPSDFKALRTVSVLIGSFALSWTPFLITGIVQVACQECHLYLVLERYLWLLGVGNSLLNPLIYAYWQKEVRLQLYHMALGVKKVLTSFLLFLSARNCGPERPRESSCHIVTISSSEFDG
Test: AlphaScreen cAMP assay in Min-6/hGPR119 cells (activation of GPR119, intracellular cAMP)
Assay type: cell-based
Conditions: MIN6 cells stably transfected with human GPR119; cAMP by AlphaScreen after 45 minutes incubation at room temperature
Summary of the method: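 MIN6 cells stably expressing human GPR119, seeded 24 h before treatment; compounds applied 45 min at ~20 °C in Hepes-buffered saline pH 7.4 with 0.5 mM IBMX, 0.1% BSA, 1% DMSO final. Intracellular cAMP measured by AlphaScreen.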

Point of comparison: COC1CN(C(=O)c2ccc(-c3ccc4c(c3)CC(C3CCN(C(=O)OC(C)C)CC3)O4)cc2)C1 (centres unmarked) [Example 145], EC50 38 nM. Against it:
- CC(O)CNC(=O)Cc1ccc(-c2ccc3c(c2)CC(C2CCN(C(=O)OC(C)C)CC2)O3)cc1 (centres unmarked) [Example 130] — 4.2-fold higher, 159 nM
- CC(C)OC(=O)N1CCC(C2Cc3cc(-c4ccc(C(=O)N5CCC(O)C5)cc4)ccc3O2)CC1 (centres unmarked) [Example 131] — 2.5-fold higher, 95 nM
- CC(C)OC(=O)N1CCC(C2Cc3cc(-c4ccc(CC(=O)N5CCC(O)C5)cc4)ccc3O2)CC1 (centres unmarked) [Example 132] — 4.1-fold higher, 154 nM
- CC(C)OC(=O)N1CCC(C2Cc3cc(-c4ccc(C(=O)NCC#N)cc4)ccc3O2)CC1 (centres unmarked) [Example 133] — 2.7-fold higher, 104 nM
- CC(C)OC(=O)N1CCC(C2Cc3cc(-c4ccc(CC(=O)NCC#N)cc4)ccc3O2)CC1 (centres unmarked) [Example 134] — 2.6-fold higher, 100 nM
- CC(C)OC(=O)N1CCC(C2Cc3cc(-c4ccc(C(=O)N5CC(F)(F)C5)cc4)ccc3O2)CC1 (centres unmarked) [Example 135] — the same, 38 nM
- CC(C)OC(=O)N1CCC(C2Cc3cc(-c4ccc(CC(=O)N5CC(F)(F)C5)cc4)ccc3O2)CC1 (centres unmarked) [Example 136] — 3.5-fold lower, 11 nM
- CC(C)OC(=O)N1CCC(C2Cc3cc(-c4ccc(C(=O)NCC5COCCO5)cc4)ccc3O2)CC1 (centres unmarked) [Example 137] — within 1.5-fold, 51 nM
- CC(C)OC(=O)N1CCC(C2Cc3cc(-c4ccc(CC(=O)NCC5COCCO5)cc4)ccc3O2)CC1 (centres unmarked) [Example 138] — 7.3-fold higher, 277 nM
- CC(C)OC(=O)N1CCC(C2Cc3cc(-c4ccc(C(=O)N(C)C5CCCOC5)cc4)ccc3O2)CC1 (centres unmarked) [Example 139] — within 1.5-fold, 52 nM
- CC(C)OC(=O)N1CCC(C2Cc3cc(-c4ccc(CC(=O)N(C)C5CCCOC5)cc4)ccc3O2)CC1 (centres unmarked) [Example 140] — 1.7-fold higher, 63 nM
- CC(C)OC(=O)N1CCC(C2Cc3cc(-c4ccc(C(=O)NCc5cocn5)cc4)ccc3O2)CC1 (centres unmarked) [Example 141] — within 1.5-fold, 40 nM
- CC(C)OC(=O)N1CCC(C2Cc3cc(-c4ccc(CC(=O)NCc5cocn5)cc4)ccc3O2)CC1 (centres unmarked) [Example 142] — 5.5-fold higher, 208 nM
- CC(C)OC(=O)N1CCC(C2Cc3cc(-c4ccc(C(=O)N5CCC(C)(O)C5)cc4)ccc3O2)CC1 (centres unmarked) [Example 143] — 2.5-fold higher, 94 nM
- CC(C)OC(=O)N1CCC(C2Cc3cc(-c4ccc(CC(=O)N5CCC(C)(O)C5)cc4)ccc3O2)CC1 (centres unmarked) [Example 144] — 2.9-fold higher, 110 nM
- COC1CN(C(=O)Cc2ccc(-c3ccc4c(c3)CC(C3CCN(C(=O)OC(C)C)CC3)O4)cc2)C1 (centres unmarked) [Example 146] — 1.7-fold higher, 65 nM
- CC(C)OC(=O)N1CCC(C2Cc3cc(-c4ccc(C(=O)NCCC(C)(C)O)cc4)ccc3O2)CC1 (centres unmarked) [Example 147] — 3-fold higher, 113 nM
- CC(C)OC(=O)N1CCC(C2Cc3cc(-c4ccc(CC(=O)NCCC(C)(C)O)cc4)ccc3O2)CC1 (centres unmarked) [Example 148] — 2.6-fold higher, 98 nM
- CC(C)OC(=O)N1CCC(C2Cc3cc(-c4ccc(C(=O)N5CCOCC5)cc4)ccc3O2)CC1 (centres unmarked) [Example 149] — 4.2-fold lower, 9 nM
- CC(C)OC(=O)N1CCC(C2Cc3cc(-c4ccc(CC(=O)N5CCOCC5)cc4)ccc3O2)CC1 (centres unmarked) [Example 150] — 1.6-fold higher, 62 nM
- CC(C)OC(=O)N1CCC(C2Cc3cc(-c4ccc(C(=O)NCC(C)(C)CO)cc4)ccc3O2)CC1 (centres unmarked) [Example 151] — within 1.5-fold, 47 nM
- CC(C)OC(=O)N1CCC(C2Cc3cc(-c4ccc(CC(=O)NCC(C)(C)CO)cc4)ccc3O2)CC1 (centres unmarked) [Example 152] — 4-fold higher, 153 nM
- CC(C)OC(=O)N1CCC(C2Cc3cc(-c4ccc(C(=O)NCC5CCCO5)cc4)ccc3O2)CC1 (centres unmarked) [Example 153] — 2.2-fold lower, 17 nM
- CC(C)OC(=O)N1CCC(C2Cc3cc(-c4ccc(CC(=O)NCC5CCCO5)cc4)ccc3O2)CC1 (centres unmarked) [Example 154] — 2.6-fold higher, 98 nM
- CC(C)OC(=O)N1CCC(C2Cc3cc(-c4ccc(C(=O)N(C)CCO)cc4)ccc3O2)CC1 (centres unmarked) [Example 155] — 2.2-fold higher, 82 nM
- CC(C)OC(=O)N1CCC(C2Cc3cc(-c4ccc(CC(=O)N(C)CCO)cc4)ccc3O2)CC1 (centres unmarked) [Example 156] — 3.5-fold higher, 132 nM
- CC(C)OC(=O)N1CCC(C2Cc3cc(-c4ccc(C(=O)NCc5ccccn5)cc4)ccc3O2)CC1 (centres unmarked) [Example 157] — within 1.5-fold, 34 nM
- CC(C)OC(=O)N1CCC(C2Cc3cc(-c4ccc(CC(=O)NCc5ccccn5)cc4)ccc3O2)CC1 (centres unmarked) [Example 158] — 6.2-fold higher, 235 nM
- CC(C)OC(=O)N1CCC(C2Cc3cc(-c4ccc(C(=O)N(C)CC#N)cc4)ccc3O2)CC1 (centres unmarked) [Example 159] — 1.5-fold lower, 25 nM
- CC(C)OC(=O)N1CCC(C2Cc3cc(-c4ccc(CC(=O)N(C)CC#N)cc4)ccc3O2)CC1 (centres unmarked) [Example 160] — within 1.5-fold, 31 nM
- CC(=O)Nc1ccc(-c2ccc3c(c2)CC(C2CCN(C(=O)OC(C)C)CC2)O3)cn1 (centres unmarked) [Example 161, 4-[5-(6-Acetylamino-pyridin-3-yl)-2,3-dihydro-benzofuran-2-yl]-piperidine-1-carboxylic acid isopropyl ester] — within 1.5-fold, 26 nM
- CC(=O)Nc1ccc(-c2ccc3c(c2)CC(C2CCN(C(=O)OC(C)C)CC2)O3)nn1 (centres unmarked) [Example 162, 4-[5-(6-Acetylamino-pyridazin-3-yl)-2,3-dihydro-benzofuran-2-yl]-piperidine-1-carboxylic acid isopropyl ester] — 13-fold higher, 483 nM
- CC(=O)Nc1ccc(-c2ccc3c(c2)CC(C2CCN(C(=O)OC(C)C)CC2)O3)c(C)n1 (centres unmarked) [Example 163] — 7.8-fold higher, 296 nM
- CC(=O)Nc1ccc(-c2ccc3c(c2)CC(C2CCN(C(=O)OC(C)C)CC2)O3)cc1 (centres unmarked) [Example 164] — 2.3-fold higher, 89 nM
- Cc1c(-c2ccc3c(c2)CC(C2CCN(C(=O)OC(C)C)CC2)O3)cnn1C (centres unmarked) [Example 165] — 48-fold higher, 1840 nM
- CC(C)OC(=O)N1CCC(C2Cc3cc(-c4cncs4)ccc3O2)CC1 (centres unmarked) [Example 166] — 5-fold higher, 190 nM
- COc1cnnc(-c2ccc3c(c2)CC(C2CCN(C(=O)OC(C)C)CC2)O3)c1 (centres unmarked) [Example 167] — 22-fold higher, 845 nM
- CC(C)OC(=O)N1CCC(C2Cc3cc(-c4cnn(C)c4)ccc3O2)CC1 (centres unmarked) [Example 168] — 50-fold higher, 1910 nM
- CC(=O)Nc1cc(-c2ccc3c(c2)CC(C2CCN(C(=O)OC(C)C)CC2)O3)ccc1C (centres unmarked) [Example 169] — 83-fold higher, 3140 nM
- CC(C)OC(=O)N1CCC(C2Cc3cc(-c4ccc(C#N)s4)ccc3O2)CC1 (centres unmarked) [Example 170] — 1.6-fold higher, 62 nM
- Cc1nn(C)cc1-c1ccc2c(c1)CC(C1CCN(C(=O)OC(C)C)CC1)O2 (centres unmarked) [Example 171] — 15-fold higher, 582 nM
- CC(C)OC(=O)N1CCC(C2Cc3cc(-c4ccc(CN(C)S(C)(=O)=O)cc4)ccc3O2)CC1 (centres unmarked) [Example 172] — 7.6-fold higher, 288 nM
- CC(C)OC(=O)N1CCC(C2Cc3cc(-c4cnc(NC(=O)C(C)(C)C)s4)ccc3O2)CC1 (centres unmarked) [Example 173] — 9.8-fold higher, 373 nM
- CNc1ncc(-c2ccc3c(c2)CC(C2CCN(C(=O)OC(C)C)CC2)O3)cn1 (centres unmarked) [Example 174] — 16-fold higher, 610 nM
- COc1cnc(-c2ccc3c(c2)CC(C2CCN(C(=O)OC(C)C)CC2)O3)nc1 (centres unmarked) [Example 175] — 87-fold higher, 3310 nM
- CC(C)OC(=O)N1CCC(C2Cc3cc(-c4cnccn4)ccc3O2)CC1 (centres unmarked) [Example 176] — 13-fold higher, 489 nM
- CC(=O)Nc1ncc(-c2ccc3c(c2)CC(C2CCN(C(=O)OC(C)C)CC2)O3)s1 (centres unmarked) [Example 177] — 5.3-fold higher, 201 nM
- CC(=O)Nc1nc(C)c(-c2ccc3c(c2)CC(C2CCN(C(=O)OC(C)C)CC2)O3)s1 (centres unmarked) [Example 178] — 32-fold higher, 1200 nM
- COc1cc(-c2ccc3c(c2)CC(C2CCN(C(=O)OC(C)C)CC2)O3)ccc1NC(C)=O (centres unmarked) [Example 179] — 3.1-fold higher, 118 nM
